Data on 45 molecules can be found in US11230524B2, “Myocyte enhancer factor 2 (MEF2) modulators” (STANDARD LLC, priority 2017, dated 2022).

A value given as a limit tells only on which side of the number the result lay.

What all share (assay type): cell-based
In assay [1] the target is MEF2D/HDAC4 protein-protein interactions (Homo sapiens (Human), UniProt Q14814). The assay is described as follows: Mammalian two-hybrid assay, inhibition of MEF2D and HDAC4 protein interactions (luciferase reporter in HeLa cells). The settings on record: HeLa cells co-transfected with GAL4-MEF2D, HDAC4-VP16 and Gal4Luc; overnight treatment; luciferase normalized to Renilla. An excerpt:
Detection of MEF2D and HDAC4 interactions. In this mammalian two-hybrid assay, HDAC4 and MEF2D proteins were used. […] Human epithelial carcinoma cells (HeLa) were co-transfected with the two DNA constructs (GAL4-MEF2D and HDAC4-VP16) and a reporter plasmid (Gal4Luc). […] MEF2D and HDAC4 protein interactions were detected as a result of the GAL4-MEF2D and HDAC4-VP16 protein complex binding a DNA promoter on the reporter plasmid (Gal4Luc) and driving cellular expression of a luciferase gene. The measured luciferase protein signal was proportional to the amount of MEF2D and HDAC4 protein interactions occurring with the cell.
The HDAC4 fragment lacked the catalytic domain so that the deacetylase activity was excluded from the assay.
Detection of inhibition of MEF2D and HDAC4 interactions. Next, the assay was used to test whether the compounds could disrupt the interactions between MEF2D and HDAC4. After co-expressing the GAL4-MEF2D and HDAC4-VP16 DNA constructs and reporter plasmid, the HeLa cells were treated with a test compound (10 μM) overnight. Cells transfected with the positive control GAL4VP16 fusion construct and reporter plasmid were also treated with the test compound (10 μM) overnight. As another control, DMSO was added (but kept below 0.2% V/V) to cells transfected with the positive GAL4VP16 fusion construct or the GAL4-MEF2D and HDAC4-VP16 DNA constructs. A luciferase assay was performed as described above according to the manufacturer's protocol (Promega). The luciferase response was normalized against the Renilla Luciferase as an internal control.
The relative activity and IC50 calculations. […] The relative activity, I, was the ratio of former to later, i.e. X/Y, expressed in percentile. […] The IC50 was the concentration of the compounds when X/Y equals 50.
A general note: In a reporter assay the amount or activity of a reporter protein is the signal.

Assay [2] concerns neonatal rat ventricular myocytes (NRVMs). In words: Inhibition of fetal calf serum induced cardiomyocyte hypertrophy in vitro. The conditions noted are these: serum-starved NRVMs, 5% FCS, myocyte size 48 hours after treatment, concentration reducing FCS-induced hypertrophy by 50%; for IC50: Rattus norvegicus, Ventricular myocyte. The procedure: To evaluate the ability of the test compounds to inhibit cardio myocyte hypertrophy in vitro, serum-starved neonatal rat ventricular myocytes (NRVMs) were exposed to medium with 5% Fetal Calf Serum (FCS), a powerful activator of myoctye growth (hypertrophy) and treated with one of the compounds at doses ranging from 0.2-10 μM or with the vehicle (dimethyl sulfoxide (DMSO)). Control cells received fresh media without serum. The myocyte size was determined 48 hours after treatment. The results in Table 7 show the concentrations of the test compounds required to reduce the FCS-induced hypertrophy in the NRVMs by 50% (IC50 μM).

The target of assay [3] is MEF2D/p300 protein-protein interactions (Homo sapiens (Human), UniProt Q14814). The assay is described as follows: Mammalian two-hybrid assay, inhibition of MEF2D and P300 protein interactions (luciferase reporter in HeLa cells). The settings on record: HeLa cells co-transfected with GAL4-MEF2D, P300-VP16 and Gal4Luc. The text has this:
Detection of MEF2D and P300 interactions. The same system that was used in Example 19 is used in here to detect MEF2D and P300 interactions. In this assay, two separate DNA constructs were made with MEF2D fused with the GAL4 DNA binding domain (GAL4-MEF2D) and P300 fused with the viral transactivator VP-16 ([…]). Human epithelial carcinoma cells (HeLa) were co-transfected with the two DNA constructs (GAL4-MEF2D and P300-VP16) and a reporter plasmid (Gal4Luc). […] MEF2D and P300 protein interactions were detected as a result of the GAL4-MEF2D and P300-VP16 protein complex binding a DNA promoter on the reporter plasmid (Gal4Luc) and driving cellular expression of a luciferase gene. The measured luciferase protein signal was proportional to the amount of MEF2D and P300 protein interactions occurring with the cell.
The relative activity and IC50 calculations. The IC50 concentrations were calculated in the same manner as described for Example 19.

MEF2D/HDAC4 protein-protein interactions, sequence (Q14814 whole entry, species assumed, the tested form may be a part): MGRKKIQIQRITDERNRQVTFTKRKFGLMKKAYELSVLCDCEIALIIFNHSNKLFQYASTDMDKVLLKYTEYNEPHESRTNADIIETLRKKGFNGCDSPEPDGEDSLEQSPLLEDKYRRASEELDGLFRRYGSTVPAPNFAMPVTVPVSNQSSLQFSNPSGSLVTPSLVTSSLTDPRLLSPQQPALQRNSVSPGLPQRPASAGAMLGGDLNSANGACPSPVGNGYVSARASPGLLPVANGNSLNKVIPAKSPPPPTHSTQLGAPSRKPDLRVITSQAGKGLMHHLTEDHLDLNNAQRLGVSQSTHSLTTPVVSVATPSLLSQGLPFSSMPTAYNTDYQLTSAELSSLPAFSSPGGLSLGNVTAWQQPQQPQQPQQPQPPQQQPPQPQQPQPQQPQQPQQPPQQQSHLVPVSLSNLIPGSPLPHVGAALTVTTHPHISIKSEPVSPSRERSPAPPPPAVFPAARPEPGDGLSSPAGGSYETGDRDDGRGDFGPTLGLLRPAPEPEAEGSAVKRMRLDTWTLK
MEF2D/p300 protein-protein interactions, sequence (Q14814 whole entry, species assumed, the tested form may be a part): as above

A word on the IC50: it is the concentration that inhibits the measured activity by half. As for `Nc1ccccc1NC(=O)/C=C/c1cccc(CNc2cccc(OC3CC3)c2)c1` [ST7, (E)-N-(2-aminophenyl)-3-(3-(((3-cyclopropoxyphenyl)amino)methyl)phenyl)acrylamide], the 50% inhibitory concentration (IC50) in assay [1] was 1.6 µM; in assay [2], 0.46 µM; in assay [3], 1.6 µM.

In the case of `Cc1csc(NCc2cccc(/C=C/C(=O)Nc3ccccc3N)c2)n1` [ST66, (E)-N-(2-aminophenyl)-3-(3-((4-methylthiazol-2-ylamino)methyl)phenyl)acrylamide], the figures for the IC50 in assay [1], in assay [2] and in assay [3] were 2.48 µM, 1420 µM and 1.69 µM, respectively.

With `Nc1ccccc1NC(=O)/C=C/c1cccc(CNCc2cccc(OC3CC3)c2)c1` [ST13], the IC50 in assay [1] stood at 1.52 µM; in assay [2], 0.12 µM; in assay [3], 0.79 µM.

`COC(=O)NC(CCCCC(=O)Nc1ccccc1N)C(=O)Nc1cccc2cccnc12` (stereo not drawn) [ST119, methyl (7-((2-aminophenyl)amino)-1,7-dioxo-1-(quinolin-8-ylamino)heptan-2-yl)carbamate]: the values for the IC50 in assay [1], in assay [2] and in assay [3] were 0.39 µM, 0.079 µM and 0.14 µM, respectively.

For `Nc1ccccc1NC(=O)CCCCC(NC(=O)c1ccccc1)C(=O)Nc1cccc(Br)c1` (stereo not drawn) [ST92, N^7-(2-aminophenyl)-2-benzamido-N^1-(3-bromophenyl)heptanediamide], the IC50 in assay [1] was determined as 0.81 µM; in assay [3] it was 0.47 µM.

Take `Nc1ccccc1NC(=O)/C=C/c1cccc(CNc2nc(C(F)(F)F)co2)c1` [ST63, (E)-N-(2-aminophenyl)-3-(3-((4-(trifluoromethyl)oxazol-2-ylamino)methyl)phenyl)acrylamide]: the figures for the IC50 in assay [1], in assay [2] and in assay [3] were 1.85 µM, 4.2 µM and 2.73 µM, respectively.

For the molecule `COC(=O)NC(CCCCC(=O)Nc1ccccc1N)C(=O)Nc1nc(-c2ccncc2)cs1` (stereo not drawn) [ST116, methyl (7-((2-aminophenyl)amino)-1,7-dioxo-1-((4-(pyridin-4-yl)thiazol-2-yl)amino)heptan-2-yl)carbamate], the IC50 in assay [1] was determined as 0.57 µM; in assay [2], 4400 µM; in assay [3] it was 0.27 µM.

Consider `Nc1ccccc1NC(=O)/C=C/c1cccc(CNc2ccc3ncccc3c2)c1` [ST55, (E)-N-(2-aminophenyl)-3-(3-((quinolin-6-ylamino)methyl)phenyl)acrylamide], for which the IC50 in assay [1] is 4.53 µM; in assay [2], 9.26 µM; in assay [3], 0.51 µM.

In the case of `Cc1[nH]c2ccccc2c1CCNCc1cccc(/C=C/C(=O)Nc2ccccc2N)c1` [ST49, (E)-N-(2-aminophenyl)-3-(3-(((2-(2-methyl-1H-indol-3-yl)ethyl)amino)methyl)phenyl)acrylamide], in assay [2], the IC50 stood at 1.23 µM.

In the case of `CCOC(=O)NC(CCCCC(=O)NCc1cncc(OCC)c1)C(=O)NCc1cncc(OCC)c1` (stereo not drawn) [ST129], the half-maximal inhibitory concentration (IC50) in assay [1] and in assay [3] was 20 µM each time. Besides, the “IC50, inhibition of cardiomyocyte hypertrophy in vitro” value in assay [2] is listed as “no inhibition”.

For the molecule `COC(=O)NC(CCCCC(=O)Nc1ccccc1N)C(=O)Nc1cccc(SC)c1` (stereo not drawn) [ST85, methyl (7-((2-aminophenyl)amino)-1-((3-(methylthio)phenyl)amino)-1,7-dioxoheptan-2-yl)carbamate], the IC50 in assay [1] was 0.47 µM; in assay [3], less than 0.15 µM.

As for `Nc1ccccc1NC(=O)/C=C/c1cccc(CNc2ccccc2)c1` [ST1, (E)-N-(2-aminophenyl)-3-(3-((phenylamino)methyl)phenyl)acrylamide], the results for the IC50 in assay [1], in assay [2] and in assay [3] were 9.4 µM, 0.81 µM and 0.38 µM, respectively.

On to `Nc1ccccc1NC(=O)/C=C/c1cccc(CNc2ccc3ccccc3c2)c1` [ST54, (E)-N-(2-aminophenyl)-3-(3-((naphthalen-2-ylamino)methyl)phenyl) Acrylamide], for which inhibition in assay [2] was half-maximal at 1.16 µM (IC50).

For `Nc1ccccc1NC(=O)/C=C/c1cccc(NC(=O)OCc2cccnc2)c1` [ST68], half-maximal inhibition in assay [1] (IC50) was put at 2.1 µM.

In assay [1], `O=C(CCCC[C@@H](NC(=O)c1ccccn1)C(=O)Nc1cccc(Br)c1)NO` [ST111] came in with an IC50 of 0.94 µM.

`CC(C)Oc1cccc(NCc2cccc(/C=C/C(=O)NO)c2)c1` [ST27] gave an IC50 in assay [1] of 0.35 µM.

In assay [1], `Nc1ccccc1NC(=O)/C=C/c1cccc(CNc2cccc(N3CCCC3)c2)c1` [ST10] yielded an IC50 of 2.51 µM.

For `Nc1ccccc1NC(=O)/C=C/c1cccc(CNc2cccc(N3CCCCC3)c2)c1` [ST6], in assay [1], half-maximal inhibition (IC50) was put at 2.46 µM.

Turning to `CC(C)Oc1cccc(NCc2cccc(/C=C/C(=O)Nc3ccccc3N)c2)c1` [ST5], the IC50 in assay [1] turned out to be 191 µM.

Turning to `CCOC(=O)NC(CCCCC(=O)Nc1ccccc1N)C(=O)Nc1nc(-c2ccncc2)cs1` (stereo not drawn) [ST115], the IC50 in assay [1] is 0.54 µM.

In assay [1], `Cc1nnc(NCc2cccc(/C=C/C(=O)NO)c2)s1` [ST73] gave an IC50 of 1.15 µM.

In assay [1], `O=C(/C=C/c1cccc(CNc2ccccc2)c1)NO` [ST15] displayed an IC50 of 0.92 µM.

For the molecule `Cc1nnc(NCc2cccc(/C=C/C(=O)Nc3ccccc3N)c2)s1` [ST60], the IC50 in assay [1] was determined as 5.04 µM.

Consider `O=C(/C=C/c1cccc(CNc2nc(-c3ccncc3)cs2)c1)NO` [ST70], for which the IC50 in assay [1] is 0.14 µM.

`O=C(/C=C/c1cccc(CNc2cccc(OC3COC3)c2)c1)NO` [ST31] yielded an IC50 in assay [1] of 0.56 µM.

As to `CCOC(=O)NC(CCCCC(=O)Nc1ccccc1N)C(=O)Nc1ccccc1` (stereo not drawn) [ST91], the IC50 in assay [1] was found to be 1.46 µM.

In turn, `Cc1csc(NCc2cccc(/C=C/C(=O)NO)c2)n1` [ST78] displayed an IC50 in assay [1] of more than 20 µM.

On to `Nc1ccccc1NC(=O)CCCC[C@H](NC(=O)OCC1CC1)C(=O)Nc1cccc(Br)c1` [ST99], for which the IC50 in assay [1] is 0.59 µM.

In assay [1], `CN(C)c1cccc(NCc2cccc(/C=C/C(=O)NO)c2)c1` [ST33] had an IC50 of 0.37 µM.

In turn, `CCOC(=O)N[C@H](CCCCC(=O)NO)C(=O)Nc1cccc(Br)c1` [ST112] gave an IC50 in assay [1] of 0.61 µM.

`CCc1cccc(NCc2cccc(/C=C/C(=O)NO)c2)c1` [ST22]: the IC50 in assay [1] came to 0.54 µM.

The molecule `Cc1nnc(NCc2cccc(/C=C/C(=O)NO)c2)o1` [ST76] registered an IC50 in assay [1] of more than 10 µM.

Turning to `CCCC(=O)NC(CCCCC(=O)NO)C(=O)Nc1cccc(Br)c1` (stereo not drawn) [ST110], the IC50 in assay [1] was determined as 0.42 µM.

The molecule `CCOC(=O)NC(CCCCC(=O)Nc1ccccc1N)C(=O)Nc1cncc(OCC)c1` (stereo not drawn) [ST127] displayed an IC50 in assay [1] of 1.84 µM.

In the case of `COc1cccc(NCc2ccc(F)c(/C=C/C(=O)Nc3ccccc3N)c2)c1` [ST12], the 50% inhibitory concentration (IC50) in assay [1] was 3.36 µM.

`Nc1ccccc1NC(=O)/C=C/c1cccc(CNc2nc(C(F)(F)F)cs2)c1` [ST62]: the IC50 in assay [1] was determined as 3.04 µM.

For `O=C(/C=C/c1cccc(CNc2cccc(OCC(F)F)c2)c1)NO` [ST45], in assay [1], the IC50 worked out at 0.56 µM.

Consider `Nc1ccccc1NC(=O)/C=C/c1cccc(CNc2nc3ccccc3s2)c1` [ST50], for which the IC50 in assay [1] was found to be 2.55 µM.

With `O=C(/C=C/c1cccc(C(=O)Nc2nc(-c3ccncc3)cs2)c1)NO` [ST69], the IC50 in assay [1] was 0.98 µM.

In the case of `CCC(=O)NC(CCCCC(=O)Nc1ccccc1N)C(=O)Nc1cccc(Br)c1` (stereo not drawn) [ST89], the concentration for half-maximal inhibition (IC50) was 0.77 µM in assay [1] and 0.071 µM in assay [3].

In assay [1], `Nc1ccccc1NC(=O)/C=C/c1cccc(CNc2cccc(Br)c2)c1` [ST2] showed an IC50 of 5.94 µM.

`CCOC(=O)NC(CCCCC(=O)Nc1ccccc1N)C(=O)Nc1cccnc1` (stereo not drawn) [ST123] came in with an IC50 in assay [1] of 2 µM.

Take `CCC(=O)CNC(CCCCC(=O)NO)C(=O)Nc1cccc(Br)c1` (stereo not drawn) [ST114]: in assay [1], half-maximal inhibition (IC50) required 1.25 µM.

With `CCCCNC(CCCCC(=O)Nc1ccccc1N)C(=O)Nc1cccc(Br)c1` (stereo not drawn) [ST88], the IC50 in assay [1] was determined as 7.32 µM.

Regarding `Cc1coc(NCc2cccc(/C=C/C(=O)Nc3ccccc3N)c2)n1` [ST67], the IC50 in assay [1] stood at 3.06 µM.
